Measured values as given in US20170182104A1, “COMPOSITION CONTAINING MASTERWORT EXTRACT” (AMOREPACIFIC CORPORATION, priority 2014, published 2017).

Legend:
Assay type in all cases: cell-based, human
EDN1 (endothelin 1) gene = assay: Gene expression assay by real-time PCR: EDN1 gene in melanocytes; details: melanocytes (KaMC), 2 nM substance P, 5 days; relative to GAPDH, control group = 1
Procedure: (§1) Melanocytes (KaMC; KCTC 12015BP) deposited in the Korean Collection for Type Culture (KCTC) were cultured in M-254 medium (Gibco BRL, N.Y., USA) supplemented with Human Melanocyte Growth Supplement (HMGS; Gibco BRL, N.Y., USA) on a 6-well plate, while changing the medium every other day, in a 5% CO2 incubator at 37° C. until the cells occupied 95% of the plate area (95% confluence). […] The cells not treated with substance P or the masterwort (Peucedanum ostruthium) extract of Example 1 were used as a control group. After removing the medium form the melanocytes cultured on the 6-well plate, the cells were washed 2 times with cold phosphate-buffered saline (PBS) and the remaining water was completely removed. […] 1 μL of the RNA was quantified using Synergy II (Biotek, USA). […] After adding 10 μL of Taqman Gene Expression Master Mix (Life Technologies, USA) and 1 μL of Assays-on-DemandTM (Life Technologies, USA) of NK1 R (ACCESSION: NM_001058) and EDN1 (ACCESSION: NM_001168319) genes to 9 μL of the diluted cDNA, the expression of the genes was analyzed by relative quantification using 7500 Fast Real-Time PCR (Life Technologies, USA) with glyceraldehyde 3-phosphate dehydrogenase (GAPDH, ACCESSION: NM001256799) as a control gene. […]

endothelin 1 (EDN1) = assay: Endothelin 1 ELISA assay of culture medium of melanocytes; details: melanocytes (KaMC) medium, 2 nM substance P; absorbance/total protein, control group = 100%
Procedure: When the density of the melanocytes on the 6-well plate reached about 80% (˜80% confluence), they were incubated for a total of 5 days with 2 nM of stress-inducing substance P (Bachem Fechemikalien, Bubendorf, Switzerland) or the masterwort (Peucedanum ostruthium) extract of Example 1 of different concentrations (0, 0.1, 1, 2 and 5 ppm). The cells not treated with substance P or the masterwort (Peucedanum ostruthium) extract of Example 1 were used as a control group.
The culture medium of the cells treated with the extract in (2) of Test Example 1 were recovered and the amount of endothelin 1 (EDN1) comprised in the medium was measured at 450 nm using the human total endothelin ELISA kit (MyBioSource, USA).
Endothelin content (%)=(Absorbance/Total protein)×100 Equation 1

[1] = tested on: NK1R (neurokinin 1 receptor) gene; assay: Gene expression assay by real-time PCR: NK1R gene in melanocytes; details: melanocytes (KaMC), 2 nM substance P, 5 days; relative to GAPDH, control group = 1
Procedure: as §1

CSCC[C@H](NC(=O)[C@H](CC(C)C)NC(=O)CNC(=O)[C@H](Cc1ccccc1)NC(=O)[C@H](Cc1ccccc1)NC(=O)[C@H](CCC(N)=O)NC(=O)[C@H](CCC(N)=O)NC(=O)[C@@H]1CCCN1C(=O)[C@H](CCCCN)NC(=O)[C@@H]1CCCN1C(=O)[C@@H](N)CCCN=C(N)N)C(N)=O [substance P]
expression of the EDN1 gene (EDN1 (endothelin 1) gene): 3.6
content of endothelin 1 (endothelin 1 (EDN1)): 124%
expression of the NK1R gene [1]: 4.2
